Laboratory results reported in patent publication US10624944B2, “Anti-inflammatory peptides for treating non-alcoholic steatohepatitis (NASH)” (Creative Bio-Peptides Inc., priority 2017, dated 2020).
Read-outs that look alike come from different tables or passages of the source. Square brackets hold non-standard residues; d marks the D form. Ends that are not written are not given here.

What was measured:
[1] = target: T1, CCR2 (Homo sapiens, UniProt P41597); settings: 30 min pretreatment; CCL2 50 ng/mL for 90 min; FIG. 2; cited from earlier work
T1 sequence (P41597 whole entry): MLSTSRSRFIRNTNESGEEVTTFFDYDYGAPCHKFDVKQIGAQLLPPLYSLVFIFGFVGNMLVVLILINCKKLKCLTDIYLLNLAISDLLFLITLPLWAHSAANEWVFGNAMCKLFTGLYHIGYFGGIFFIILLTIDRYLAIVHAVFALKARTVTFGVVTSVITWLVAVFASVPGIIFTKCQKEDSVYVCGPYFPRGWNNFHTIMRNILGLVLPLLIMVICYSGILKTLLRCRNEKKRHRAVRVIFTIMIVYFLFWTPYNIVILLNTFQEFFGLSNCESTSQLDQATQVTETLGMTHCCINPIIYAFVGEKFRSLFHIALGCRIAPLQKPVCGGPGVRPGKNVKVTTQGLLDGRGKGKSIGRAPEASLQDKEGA

[2] = system: chemokines, chemokine receptors and cytokines; settings: Rat, oral gavage 0.05-1 mg/kg for 7 days, nerve injured
From the text: The specific experimental details are provided in Padi, 2012 (7).

[3] = target: CCR5 (Homo sapiens, UniProt P51681); settings: 30 min pretreatment; CCL4 50 ng/mL for 90 min; FIG. 2; cited from earlier work
CCR5, sequence (P51681 whole entry): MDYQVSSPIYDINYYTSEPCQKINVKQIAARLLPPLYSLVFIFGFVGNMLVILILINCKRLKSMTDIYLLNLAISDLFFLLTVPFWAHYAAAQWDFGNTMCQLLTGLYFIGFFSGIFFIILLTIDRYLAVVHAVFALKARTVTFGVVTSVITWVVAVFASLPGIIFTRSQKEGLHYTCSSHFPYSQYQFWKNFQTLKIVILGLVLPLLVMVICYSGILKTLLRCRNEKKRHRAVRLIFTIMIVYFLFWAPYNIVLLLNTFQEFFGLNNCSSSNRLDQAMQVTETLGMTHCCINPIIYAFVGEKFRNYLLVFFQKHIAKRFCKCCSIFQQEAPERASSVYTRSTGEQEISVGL

[4] = system: TLR4/MyD88; settings: iDCs treated at 10^-12 M for 30 min, then LPS 100 ng/ml, analyzed after 48 hrs
Method: To determine whether all-D-TTNYT (SEQ ID NO:1) blocks maturation of antigen-presenting dendritic cells, human PBMC's were isolated from peripheral blood by Ficoll-Paque centrifugation and then monocytes were isolated by negative selection using immunobeads (Miltenyi). Human monocyte derived immature dendritic cells (iDCs) were then generated by treating monocytes with GM-CSF/IL4.
After 30 min LPS (100 ng/ml) was added to the cells and cells were analyzed after 48 hrs. for surface maturation markers using fluorescent labeled antibodies by flow cytometry.

[5] = system: human monocyte derived immature dendritic cells (iDCs)
From the text: In liver, TLR4 is expressed by all parenchymal and non-parenchymal cell types, and contributes to tissue damage caused by a variety of etiologies. TLR4 signaling occurs in hepatic stellate cells (HSCs), the major fibrogenic cell type in injured liver, and mediates an inflammatory phenotype leading to fibrogenesis.

[6] = target: T1, CCR2; assay: CCL2 (MCP-1)-elicited chemotaxis of human monocytes; format: cell-based; design: endogenous in cells; host or cells: human monocytes; settings: FIG. 3; methods similar to FIG. 2; low concentration
Method: Monocytes were treated with the indicated doses of RAP-103 for 30 min before chemotaxis against human CCL2 (MCP-1) or CCL4 (MIP-1β) (both 50 ng/mL) for 90 min. Data (chemotactic index) are presented as mean±SEM. The chemotactic index for MCP-1 without RAP-103 was 2.5-3.5 times over control, whereas for MIP-1 ? without RAP-103, it was approximately 2 times over control. Data are presented as mean±SEM. (*P<0.05, **P<0.01 vs RAP-103 untreated). Data are from [Padi, 2012, FIG. 1]. […] Dual-chemokine CCR2/CCR5 receptor antagonists may have added therapeutic value by blocking multiple inflammatory pathways.
Methods are similar to those in FIG. 2.

[7] = system: response to bradykinin; settings: amounts up to 50,000 times the standard challenge of bradykinin; cited from earlier work
[8] = system: high fat diet mouse model of NAFLD; settings: cited from earlier work
[9] = system: TLR4/MyD88; settings: Rat; cited from earlier work
[10] = system: inflammatory cytokine levels; settings: Hu; cited from earlier work
[11] = listed as all-D-pentapeptide TTNYT

all-D-TTNYT
CCL2 (MCP-1) human monocyte chemotaxis (chemotactic index) [1]: dual-antagonist
Change of CCR2 [2]: decrease
Change of CCR5 [2]: decrease
Change of IL-6 [2]: decrease
Change of IL-β [2]: decrease
Change of MCP-1 (CCL2) [2]: decrease
Change of MIP-1α (CCL3) [2]: decrease
Change of TNFα [2]: decrease
Change of CCR2 [2, 11]: lowering expression
Change of CCR5 [2, 11]: lowering expression
Change of IL-β [2, 11]: lowering expression
Change of MCP-1 (CCL2) [2, 11]: lowering expression
Change of MIP-1α (CCL3) [2, 11]: lowering expression
Change of TNFα [2, 11]: lowering expression
CCL4 (MIP-1β) human monocyte chemotaxis (chemotactic index) [3]: dual-antagonist
expression of maturation markers CD86, HLA-DR, CD58 and ICAM1 induced by TLR4/MyD88 activation (LPS) [4]: reduces expression of all the maturation markers
DC maturation of the four markers caused by LL37 [5]: no effect

all-D-NTSYR ([dN][dT][dS][dY][dR]) [all-D-amino acid pentapeptide NTSYR]
CCL2 human monocyte chemotaxis [6]: antagonists

all-D-TTSYT ([dT][dT][dS][dY][dT]) [all-D-amino acid pentapeptide TTSYT]
CCL2 human monocyte chemotaxis [6]: antagonists

all-D-bradykinin
inhibition of the response to bradykinin or bradykinin-like effect [7]: neither any inhibition of the response to bradykinin, or any bradykinin-like effect

Maraviroc
CCL5/RANTES expression [8]: significantly lower
hepatic steatosis [8]: ameliorated hepatic steatosis

all-D-SSTYR ([dS][dS][dT][dY][dR]) [all-D-amino acid pentapeptide SSTYR]
CCL2 human monocyte chemotaxis [6]: antagonists

Dala1-peptide T-amide [DAPTA]
Change of TLR4/MyD88 [9]: decrease
Change of ICAM-1 [10]: decrease
Change of IL-1 [10]: decrease
Change of IL-6 [10]: decrease
Change of IL-8 [10]: decrease
Change of IL-23 [10]: decrease
Change of NFkB [10]: decrease
Change of STAT3 [10]: decrease
Change of TNFα [10]: decrease
